Experimental data from patent US7700581B2, “Cephalosporin compounds comprising a C3 thio-methyl moiety substituted with N-containing heterocyclic group, and a C7 thiourea acetamido group, their preparations and uses thereof” (Guangzhou Baiyunshan Pharmaceutical Co., Ltd., priority 2007, dated 2010).
In brackets after ≈: the same amount, converted by molar mass. Like-named read-outs stand apart in the source and are kept apart here. Each block holds one molecule with its values, some of them ahead of it.

What was measured:
Staphylococcus aureus = test: In vitro antibacterial activity test (MIC); format: cell-based; details: read-out: minimum inhibitory concentration (MIC)
Description: (§1) In vitro antibacterial activity test of the cephalosporin compounds disclosed herein using the common methods known in the art were conducted.

Enterococcus = test: In vitro antibacterial activity test (MIC); format: cell-based; details: read-out: minimum inhibitory concentration (MIC)
Description: as §1

Salmonella = test: In vitro antibacterial activity test (MIC); format: cell-based; details: read-out: minimum inhibitory concentration (MIC)
Description: as §1

[1] = system: Staphylococcus epidermidis; test: In vitro antibacterial activity test (MIC); format: cell-based; details: read-out: minimum inhibitory concentration (MIC)
Description: as §1

SPF grade mice = test: Acute toxicity test by intravenous injection; format: in vivo
From the text: A commonly-used acute toxicity test method was used with SPF grade mice by intravenous injection.

[2] = Pharmacokinetic comparative experiment, intravenous injection, plasma by HPLC; format: in vivo, Beagle dogs
Description: The resulting BYS02 obtained from the Examples 6 and 7 as shown above was used to compare with cefathiamidine in the following pharmacokinetic study.
Commercially available cefathiamidine was used as the comparison in the pharmacokinetic study. Using the cross-over controlled trial experimental design, 6 healthy Beagle dogs were divided into two groups: one group of dogs were intravenously injected with 50 mg/kg.bw of the BYS02 and the other group of dogs were injected with 50 mg/kg.bw of cefathiamidine. Blood samples were taken every 12 hours. The drug plasma concentrations were analyzed using HPLC. The drug plasma concentration over the time data were analyzed using MCPKP program.
Six Beagle dogs were provided by Guangzhou Pharmaceutical Research Institute. They were healthy, male, one-year old, and each weighed 8.0±0.1 kg. The dogs were kept in single-dog cages and fed with water and food according to the standards for laboratory animals. One week before the tests, the dogs were examined for hearts, livers, and kidneys, and they were found normal.
BYS02 was prepared according to Example 6 with a purity of 90%. Cefathiamidine was purchased from the market. Heparin sodium, sodium hydrogen phosphate, citric acid, methanol, ethyl acetate and other agents used were analytical-pure. Propionitrile used was chromatographic-pure. Water is pure. High Performance Liquid Chromatography (HPLC) and high-speed refrigerated centrifuges were used in the tests.
Sixteen hours before and 4 hours after the administration, the Beagle dogs were not allowed to eat food but allowed to drink water freely. After intravenously injection with 50 mg/kg.bw of the BYS02 and cefathiamidine, respectively, the two groups of dogs were taken 3 ml of blood samples intravenously at 0, 0.083, 0.17, 0.25, 0.5, 1, 1.5, 2, 3, 4, 6, 9, and 12 hours. The dogs were administrated every other week and blood samples were collected according to the above schedule. The blood samples were added to centrifuge tubes, mixed with heparin, centrifuged at 4000 rpm for 10 minutes, and the serum samples were stored in a refrigerator at −20° C. until they were used.
Hypersil ODS2, C18 column (4.6 mm×150 mm, 5 μm); mobile phase: propionitrile/phosphate buffer (11/89 volume ratio); wavelength: 254 nm; flow rate: 1.0 ml/min; room temperature; sample size: 20 μl.
Preparation of phosphate buffer (pH 7.0): 2.76 g of sodium hydrogen phosphate, 1.29 g of citric acid and 1000 ml of water were mixed well and filtered.
Drug plasma concentration over the time data were analyzed using MCPKP program to calculate the pharmacokinetic parameters. The average values and standard deviations were also calculated.

[3] = Water solubility of the product; format: physicochemical; details: product of Example 6
Description: 200 ml of methylene dichloride and 2.0 g of the intermediate prepared according to Example 1 were added to a three-neck flask. 16 ml of triethylamine was added dropwise to the flask to dissolve the solid. 0.6 g of N,N′-diisopropylthiourea was added to the reaction mixture. The mixture was refluxed until the reaction was complete. A solid product appeared in the reaction mixture. The temperature was lowered and the crystallization was carried out for an hour. The solid was filtered and dried under vacuum to yield 1.5 g of the product. It has a pH value of 5.4 and cloudiness of lower than 1 degree (1 g/10 ml water). The product is water soluble.

Hemophilus influenzae = test: In vitro antibacterial activity test (MIC); format: cell-based; details: Haemophilus influenzae, read-out: minimum inhibitory concentration (MIC)
Description: as §1

Pseudomonas aeruginosa = test: In vitro antibacterial activity test (MIC); format: cell-based; details: read-out: minimum inhibitory concentration (MIC)
Description: as §1

Streptococcus pneumoniae = test: In vitro antibacterial activity test (MIC); format: cell-based; details: read-out: minimum inhibitory concentration (MIC)
Description: as §1

Viridans streptococcus = test: In vitro antibacterial activity test (MIC); format: cell-based; details: read-out: minimum inhibitory concentration (MIC)
Description: as §1

[4] = system: Streptococcus hemolyticus group A; test: In vitro antibacterial activity test (MIC); format: cell-based; details: Streptococcus pyogenes, read-out: minimum inhibitory concentration (MIC)
Description: as §1

Streptococcus pyogenes = test: In vitro antibacterial activity test (MIC); format: cell-based; details: read-out: minimum inhibitory concentration (MIC)
Description: as §1

[5] = single intravenous administration
[6] = Beagle dogs, intravenous injection, 50 mg/kg.bw

SMILES: CO/N=C(\C(=O)N[C@@H]1C(=O)N2C(C(=O)O)=C(CSc3nc(=O)c(=O)[nH]n3C)CS[C@H]12)c1csc(N)n1 [Ceftriaxone, ceftriaxone, reference compound]
MIC (Staphylococcus aureus): 32 to 64 mg/L (≈ 57.7 to 115 µM)
MIC (Enterococcus): > 512 mg/L
MIC (Salmonella): 0.125 mg/L (≈ 0.225 µM)
MIC [1]: 2 to 8 mg/L (≈ 3.61 to 14.4 µM)

SMILES: CC(C)N=C(NC(C)C)SCC(=O)NC1C(=O)N2C(C(=O)O)=C(CSc3nc(=O)c(=O)[nH]n3C)CSC12 (stereo not drawn) [Compound II, 3-((1,2,5,6-tetrahydro-2-methyl-5,6-dioxo-1,2,4-triazine-3-ylthio)methyl)-7-[[[[[(1-methylethyl)amino][(1-methylethyl)imino]methyl]thio]acetyl]amino]-8-oxo-5-thia-1-aza-bicyclo[4.2.0]oct-2-ene-2-carboxylic acid]
LD50 (SPF grade mice; [5]): 672 mg/kg.bw
LD50 95% confidence limit (SPF grade mice; [5]): 650-700 mg/kg.bw
mortality (SPF grade mice; single intravenous injection of 465 mg/kg.bw): No death
mortality (SPF grade mice; single intravenous injection of 930 mg/kg.bw or more): the animals died after 10 seconds of struggling
ClB [2, 6]: 0.47 ± 0.09 L/h/kg
Co [2, 6]: 208.97 ± 61.16 µg/mL
V1 [2, 6]: 0.25 ± 0.07 L/kg
VB [2, 6]: 1.61 ± 0.30 L/kg
t1/2α [2, 6]: 37.8 ± 7.2 min
t1/2β [2, 6]: 131 ± 2.4 min
AUC ([2]; male, dog, in vivo, Beagle dogs, intravenous injection, 50 mg/kg.bw, read-out: AUC): 108 ± 18.2 µg·h/mL
solubility in water [3]: water soluble
MIC (Staphylococcus aureus): 1 to 4 mg/L (≈ 1.75 to 7 µM)
MIC (Hemophilus influenzae): 8 to 16 mg/L (≈ 14 to 28 µM)
MIC (Enterococcus): 4 to 8 mg/L (≈ 7 to 14 µM)
MIC [1]: 0.0312 to 2 mg/L (≈ 0.0546 to 3.5 µM)
MIC (Pseudomonas aeruginosa): > 512 mg/L
MIC (Streptococcus pneumoniae): 0.125 to 0.5 mg/L (≈ 0.219 to 0.875 µM)

SMILES: Cc1nc(SCC2=C(C(=O)O)N3C(=O)C(NC(=O)CSC(=NC(C)C)NC(C)C)C3SC2)sc1CC(=O)O (stereo not drawn) [Compound V, 3-[[[5-(carboxymethyl)-4-methyl-2-thiazolyl]thio]methyl]-7-[[[[[(1-methylethyl)amino][(1-methylethyl)imino]methyl]thio]acetyl]amino]-8-oxo-5-thia-1-aza-bicyclo[4.2.0]oct-2-ene-2-carboxylic acid]
MIC (Staphylococcus aureus): 0.25 to 2 mg/L (≈ 0.415 to 3.32 µM)
MIC (Viridans streptococcus): 0.125 to 4 mg/L (≈ 0.208 to 6.65 µM)
MIC (Hemophilus influenzae): > 256 mg/L
MIC [4]: 0.125 to 1 mg/L (≈ 0.208 to 1.66 µM)
MIC (Enterococcus): 2 to 8 mg/L (≈ 3.32 to 13.3 µM)
MIC (Streptococcus pyogenes): 0.0312 to 0.5 mg/L (≈ 0.0518 to 0.831 µM)
MIC (Salmonella): 2 to 8 mg/L (≈ 3.32 to 13.3 µM)

AUC ([2]; dog, in vivo, iv, 50 mg/kg): 42.25 ± 1.02 µg·h/mL
ClB ([2]; dog, in vivo, iv, 50 mg/kg): 1.18 ± 0.03 L/h/kg
Co ([2]; dog, in vivo, iv, 50 mg/kg): 90.84 ± 29.71 µg/mL
V1 ([2]; dog, in vivo, iv, 50 mg/kg): 0.59 ± 0.20 L/kg
VB ([2]; dog, in vivo, iv, 50 mg/kg): 1.11 ± 0.07 L/kg
t1/2α ([2]; dog, in vivo, iv, 50 mg/kg): 12.6 ± 8.4 min
t1/2β ([2]; dog, in vivo, iv, 50 mg/kg): 39 ± 1.8 min
SMILES: CC(=O)OCC1=C(C(=O)O)N2C(=O)[C@@H](NC(=O)CSC(=NC(C)C)NC(C)C)[C@H]2SC1 [cefathiamidine, reference compound]
